In publication PMC3072440 (Chemical research in toxicology, 2010):
Read-outs that look alike come from different tables or passages of the source.

How the values were obtained:
[1] = biological target: T1, human P450 2C9 (Homo sapiens, UniProt P11712); experiment: Spectral binding titration with purified P450 2C9; details: concentrations up to 100 µM; results not shown
[2] = biological target: T2, human P450 3A4 (Homo sapiens, UniProt P08684); experiment: Inhibition of P450 3A4-dependent midazolam 4-hydroxylation
[3] = biological target: T1, human P450 2C9; experiment: Inhibition of P450 2C9-dependent flurbiprofen 4’-hydroxylation
[4] = biological target: T1, human P450 2C9
[5] = biological target: T2, human P450 3A4; experiment: Spectral binding titration with purified P450 3A4; details: for spectral change / Type I binding spectra with P450 3A4, in words: decreases in α and β bands monitored, up to 100 µM
[6] = biological target: T2, human P450 3A4; experiment: Effect on P450 3A4-catalyzed midazolam 1’-hydroxylation
[7] = biological target: T3, human P450 1A2 (Homo sapiens, UniProt P05177)
T3 sequence (P05177 1-516): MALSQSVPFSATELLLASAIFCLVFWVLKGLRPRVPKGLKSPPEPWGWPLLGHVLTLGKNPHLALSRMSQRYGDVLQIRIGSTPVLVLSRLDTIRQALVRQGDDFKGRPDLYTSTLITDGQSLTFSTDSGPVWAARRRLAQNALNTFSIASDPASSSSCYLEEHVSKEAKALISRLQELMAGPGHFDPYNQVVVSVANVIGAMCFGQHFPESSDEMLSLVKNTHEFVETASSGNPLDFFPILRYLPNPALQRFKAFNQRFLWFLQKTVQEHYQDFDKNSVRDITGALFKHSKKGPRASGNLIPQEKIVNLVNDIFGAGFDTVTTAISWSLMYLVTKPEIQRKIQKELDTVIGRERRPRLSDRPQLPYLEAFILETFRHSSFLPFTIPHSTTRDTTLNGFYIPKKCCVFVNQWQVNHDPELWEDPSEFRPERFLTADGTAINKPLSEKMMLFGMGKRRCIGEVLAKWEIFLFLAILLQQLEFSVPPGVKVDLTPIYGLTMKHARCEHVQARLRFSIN

[8] = biological target: T4, human P450 1A1 (Homo sapiens, UniProt P04798); experiment: Inhibition of P450 1A1-dependent EROD activity; type: biochemical
T4 sequence (P04798 1-512): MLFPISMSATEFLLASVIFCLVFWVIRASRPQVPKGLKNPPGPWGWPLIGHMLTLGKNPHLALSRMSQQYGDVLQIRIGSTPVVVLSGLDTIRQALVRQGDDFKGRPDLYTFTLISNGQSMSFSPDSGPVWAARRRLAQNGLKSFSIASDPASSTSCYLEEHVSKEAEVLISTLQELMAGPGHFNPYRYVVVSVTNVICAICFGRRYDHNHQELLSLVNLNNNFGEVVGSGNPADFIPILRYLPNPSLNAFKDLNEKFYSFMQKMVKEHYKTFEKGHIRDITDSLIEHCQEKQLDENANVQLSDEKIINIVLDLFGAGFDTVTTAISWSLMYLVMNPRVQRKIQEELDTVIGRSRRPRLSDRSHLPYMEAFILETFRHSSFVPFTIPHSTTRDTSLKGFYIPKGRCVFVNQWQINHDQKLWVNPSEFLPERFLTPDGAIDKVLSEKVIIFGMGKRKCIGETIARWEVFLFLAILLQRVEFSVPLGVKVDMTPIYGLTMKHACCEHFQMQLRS

[9] = biological target: T5, human P450 1B1 (Homo sapiens, UniProt Q16678); experiment: Inhibition of P450 1B1-dependent EROD activity; type: biochemical
T5 sequence (Q16678 1-543): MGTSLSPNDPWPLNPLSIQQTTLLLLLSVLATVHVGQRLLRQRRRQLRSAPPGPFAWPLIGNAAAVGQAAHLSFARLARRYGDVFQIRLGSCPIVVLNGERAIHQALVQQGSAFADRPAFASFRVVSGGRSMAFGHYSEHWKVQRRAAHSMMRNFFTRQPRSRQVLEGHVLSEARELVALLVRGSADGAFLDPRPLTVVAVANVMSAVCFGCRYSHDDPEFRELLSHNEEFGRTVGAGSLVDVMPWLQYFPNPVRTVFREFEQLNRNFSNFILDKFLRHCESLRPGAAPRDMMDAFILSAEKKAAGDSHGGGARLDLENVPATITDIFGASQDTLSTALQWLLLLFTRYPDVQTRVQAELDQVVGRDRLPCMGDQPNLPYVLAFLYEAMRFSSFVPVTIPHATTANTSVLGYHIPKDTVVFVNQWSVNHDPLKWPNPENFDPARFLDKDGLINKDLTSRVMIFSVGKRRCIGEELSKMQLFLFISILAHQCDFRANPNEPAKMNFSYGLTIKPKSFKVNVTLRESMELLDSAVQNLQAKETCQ

[10] = biological target: T3, human P450 1A2; experiment: Inhibition of P450 1A2-dependent EROD activity
[11] = biological target: T5, human P450 1B1; experiment: Spectral binding titration with purified P450 1B1

T2 sequence (P08684 whole entry): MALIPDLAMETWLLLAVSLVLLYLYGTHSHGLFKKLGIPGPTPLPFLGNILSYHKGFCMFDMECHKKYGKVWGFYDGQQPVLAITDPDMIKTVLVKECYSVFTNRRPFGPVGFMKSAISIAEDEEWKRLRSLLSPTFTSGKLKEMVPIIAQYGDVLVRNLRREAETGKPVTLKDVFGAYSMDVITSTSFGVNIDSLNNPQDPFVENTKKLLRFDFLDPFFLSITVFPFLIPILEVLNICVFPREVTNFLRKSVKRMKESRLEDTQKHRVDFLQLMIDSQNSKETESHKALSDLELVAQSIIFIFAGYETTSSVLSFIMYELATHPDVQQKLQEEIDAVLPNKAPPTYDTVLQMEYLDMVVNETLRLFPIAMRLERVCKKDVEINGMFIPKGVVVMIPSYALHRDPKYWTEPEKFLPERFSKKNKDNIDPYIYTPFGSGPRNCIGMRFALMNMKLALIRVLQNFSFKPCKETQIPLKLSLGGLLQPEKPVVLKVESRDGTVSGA
T1 sequence (P11712 whole entry): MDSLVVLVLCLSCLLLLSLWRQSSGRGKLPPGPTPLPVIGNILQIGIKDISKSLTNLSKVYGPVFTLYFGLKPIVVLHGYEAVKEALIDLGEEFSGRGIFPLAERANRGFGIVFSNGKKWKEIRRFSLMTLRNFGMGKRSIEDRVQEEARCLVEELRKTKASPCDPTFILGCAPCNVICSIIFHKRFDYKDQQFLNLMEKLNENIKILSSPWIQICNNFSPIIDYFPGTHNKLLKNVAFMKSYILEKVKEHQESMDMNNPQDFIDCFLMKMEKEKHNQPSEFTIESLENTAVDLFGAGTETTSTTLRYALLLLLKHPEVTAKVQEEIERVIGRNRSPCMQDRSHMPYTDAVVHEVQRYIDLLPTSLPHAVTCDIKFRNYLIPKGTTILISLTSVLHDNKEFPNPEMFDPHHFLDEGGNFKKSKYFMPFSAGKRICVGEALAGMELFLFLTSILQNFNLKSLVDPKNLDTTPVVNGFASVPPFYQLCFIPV

O=c1cc(-c2ccccc2)oc2cc(O)ccc12 [7HF, 7-hydroxyflavone]
spectral changes with P450 2C9, in words [1]: did not induce spectral changes | IC50 [2]: > 100000 nM | inhibition of P450 2C9 flurbiprofen 4’-hydroxylation, in words [3]: strong inhibitors

O=c1c(O)c(-c2ccc(O)cc2)oc2cc(O)cc(O)c12 [34’57TetraHF, 3,4’,5,7-tetrahydroxyflavone]
spectral changes with P450 2C9, in words [1]: did not induce spectral changes

O=c1cc(-c2ccccc2)oc2cc(O)cc(O)c12 [57DHF, 5,7-dihydroxyflavone]
inhibition of P450 2C9 flurbiprofen 4’-hydroxylation, in words [4]: strong inhibitors | IC50 [3]: 800 ± 140 nM

O=c1c(O)c(-c2ccccc2)oc2cc(O)cc(O)c12 [357THF, 3,5,7-trihydroxyflavone]
spectral change / Type I binding spectra with P450 3A4, in words [5]: induced spectral changes | spectral changes with P450 2C9, in words [1]: did not induce spectral changes | effect on formation of 1’-hydroxymidazolam by P450 3A4, in words [6]: slightly activated | IC50 [2]: 2300 ± 300 nM | inhibition of P450 3A4 midazolam 4-hydroxylation, in words [2]: significantly inhibited | IC50 [3]: 200 ± 30 nM | inhibition of P450 2C9 flurbiprofen 4’-hydroxylation, in words [3]: strong inhibitors

C#CCOc1ccccc1-c1cc(=O)c2ccc3ccccc3c2o1 [ANF2’PE, α-naphthoflavone 2’-propargyl ether]
IC50 [7]: 240 nM

C#CCOc1ccc(-c2cc(=O)c3ccc4ccccc4c3o2)cc1 [ANF4’PE, α-naphthoflavone 4’-propargyl ether]
IC50 [7]: 100 nM

O=c1cc(-c2ccccc2)oc2c1ccc1ccccc12 [ANF, α-naphthoflavone]
inhibition of P450 1A1 EROD, in words [8]: strongly inhibited | spectral changes with P450 2C9, in words [1]: did not induce spectral changes | IC50 [2]: 18000 nM

C#CCOc1ccccc1-c1cc(=O)c2c(ccc3ccccc32)o1 [BNF2’PE, β–naphthoflavone 2’-propargyl ether]
inhibition of P450 1A2 EROD, in words [7]: only weakly

C#CCOc1ccc(-c2cc(=O)c3c(ccc4ccccc43)o2)cc1 [BNF4’PE, β–naphthoflavone 4’-propargyl ether]
inhibition of P450 1A2 EROD, in words [7]: only weakly

O=c1cc(-c2ccccc2)oc2ccc3ccccc3c12 [BNF, β–naphthoflavone]
IC50 [9]: 17 nM | inhibition of P450 1A1 EROD, in words [8]: strongly inhibited | inhibition of P450 1A2 EROD, in words [10]: only weakly | spectral changes with P450 2C9, in words [1]: did not induce spectral changes | inhibition of P450 3A4 midazolam 4-hydroxylation, in words [2]: not active inhibitors

O=c1cc(-c2ccccc2)oc2ccccc12 [flavone]
IC50 [8]: 980 ± 210 nM | binding spectra with P450 1B1, in words [11]: Reverse Type I binding spectra | IC50 [10]: 130 ± 30 nM | spectral change / Type I binding spectra with P450 3A4, in words [5]: Type I spectral change | ΔAmax, P450 3A4, from difference spectra (Soret band) ([5]; purified P450 3A4): 0.12 ± 0.02 | spectral changes with P450 2C9, in words [1]: did not induce spectral changes | effect on formation of 1’-hydroxymidazolam by P450 3A4, in words [6]: enhanced the formation of 1’-hydroxymidazolam | inhibition of P450 3A4 midazolam 4-hydroxylation, in words [2]: inhibited the formation of 4-hydroxymidazolam | IC50 [3]: 14000 ± 1200 nM

CC(C(=O)O)c1ccc(-c2ccccc2)c(F)c1 (centres unmarked) [flurbiprofen]
spectral changes with P450 2C9, in words [1]: Type I spectra
